This is an account of results in patent US20260007716A1, “DESLORELIN FOR ATTENUATION OF ANIMAL URINE ODOR” (priority 2022, published 2026).

Data set [1] concerns male cats. Briefly: Multi-site field, double-masked, placebo-controlled study of a single 4.7 mg deslorelin implant in male cats (Example 1). In kind it is in vivo. The protocol:
The aim of this multi-site field, double-masked, placebo-controlled, randomized study was to confirm that deslorelin implants can be used as a neutering option for male cats and can also reduce their associated tomcat sexual behaviours.
Privately owned indoor male cats [3 months-11 years of age] were allocated to two groups to be either implanted with one 4.7 mg deslorelin implant (Suprelorin® 4.7 mg, Virbac, France) or to receive sodium chloride. The implant and the saline solution were administered subcutaneously between the shoulder blades on day 0 (D0). Serum testosterone concentrations in ng/ml (T), sexual behaviors (presence of urine marking, frequency of vocalization, frequency of aggressiveness) and presence of intact male cat urine odour were assessed until month (M) 12 (D372). General safety assessments, bodyweight, appetite and adverse reactions were regularly followed.
The protocol received ethical approval. The Cochran-Mantel-Haenszel test stratified by center with the RIDIT transformation and the general association statistic were used for comparison between groups.
Among n=205 Male Cats, n=154 received Suprelorin® 4.7 mg (treated group) and n=51 received the saline solution as control group.

The subject of data set [2] is molecules responsible of urine odor. Briefly: LC-MS/MS metabolomic analysis of urine of male cats after deslorelin implant (Examples 2 and 3). In kind it is in vivo, cat. The protocol:
A first study A was performed in 2 groups of a total number of 7 male healthy cats old from 12 to 13 months and weighting between 4 and 6 kg in: Control group: n=3, intact males, administered sodium chloride (saline) on day 0 (D0), Chemically treated group: n=4 one implant of Suprelorin® 4.7 mg on day 0 (D0). The study A was conducted for a period of 63 days after the implantation of Suprelorin® 4.7 mg. From […]-7, a clinical examination of the cats was performed (body weight, temperature) and samples of urine and feces were collected. At D0, the cats of the treated group were implanted subcutaneously with Suprelorin® 4.7 mg (Virbac, France). From D7 to […], a weekly clinical examination of the cats was performed (body weight, temperature) and samples urine and feces were collected. […] Thanks to this unusual technic, the metabolomics present in samples have been assessed. […] The workflow template was untargeted metabolomics with statistics to detect unknowns with ID using online Databases and mzLogic.ons obtained from positive and negative ionization mode using MZmine (Version 2.39) were also analyzed. […] Chromatograms were detected using the ADAP chromatogram builder (MS level: 1, Minimum group size in number of scans: 5, Group intensity threshold: 5×10^2, minimum highest intensity: 10^5, m/z tolerance: 10 ppm). […]

The subject of data set [3] is male cats. Briefly: Cat field studies 1 and 2: suppression of fertility, re-implantation and reversibility (Example 4). It counts as in vivo. How it is done:
This example provides the data collected from 2 combined studies (Double-masked Placebo-Controlled randomized) that have been conducted sequentially according to the following schedule: • Study 1: The study 1 has been conducted on a group of 205 male cats divided into two groups, one Control Group that received 1 mL of saline solution (n=51-subcutaneous administration) and one Treated Group (n=154) that received an implant of Suprelorin® 4.7 mg (subcutaneous implant-deslorelin acetate). • Study 2: At the end of a first period of 12 months, the Suprelorin® implant was removed in all the male cats belonging to the Treated Group. 12 male cats of the Treated Group issued from study 1 were then administered saline solution (1 mL subcutaneously) (Saline Group) and 22 cats of the Treated Group issued from Study 1 were re-implanted with a new Suprelorin® 4.7 mg implant for a second period of time of 12 months (Treated twice Group). The efficacy and safety of the re-implantation was followed-up for these supplementary 12 months, i.e. for a total of 24 months.
The observation schedule was as follows: • Study 1: V1: Day −14 to −7; V2: Day 0; V3: 1.5 months±3 days; V4: 3 months±5 days, V5: 6 months±5 days, V6: 9 months±5 days; V7: 12 months±5 days; • Study 2: V8: 12 months±3 days; V9: 13.5 months±3 days; V10: 15 months±5 days; V11: 18 months±5 days; V12: 21 months±5 days; V13: 24 months±5 days.
Regarding the enrolment criteria, in both studies the criteria were as the following: • Domestic Cats • Age >3 MONTHS old or >15 MONTHS in Study 2 • Intact Indoor males • Client-owned (including shelter cats/rehomed by foster families)
With the additional criteria for study 2 of being a success in study 1.
In these studies the following primary endpoints were measured: • For Study 1: the suppression of fertility (Testosterone≤0.10 ng/ml*from V4 until V7*-3 to 12 months) • Study 2: the suppression of fertility (Testosterone≤0.10 ng/ml*from V8 until V13 (12 to 24 months) and the time to reversion effect.
In addition to the safety parameters (Haematology and blood biochemistry, Urinalysis, Local reactions at the implantation site, Change in Body weight, Appetite, Abnormal testicular evaluation, Adverse events), the following secondary endpoints have been reported as well: • Sexual behaviour sum score • Aggression • Vocalization • Urine marking • Urine Smell/odour • Penile Spines • Testicular volume

Another data set deals with cat. Briefly: Safety study in cat and tolerance studies in male and female species. The settings on record: safety study in cat, high dose. In kind it is in vivo.
A further data set has as its system dogs. The settings on record: cited from earlier work.
[4] abbreviates: vs saline group, throughout the study.

SMILES strings stand for the structures.

Regarding `CCNC(=O)[C@@H]1CCCN1C(=O)[C@H](CCCN=C(N)N)NC(=O)[C@H](CC(C)C)NC(=O)[C@@H](Cc1c[nH]c2ccccc12)NC(=O)[C@H](Cc1ccc(O)cc1)NC(=O)[C@H](CO)NC(=O)[C@H](Cc1c[nH]c2ccccc12)NC(=O)[C@H](Cc1cnc[nH]1)NC(=O)[C@@H]1CCC(=O)N1` [deslorelin], in the data set on male cats [1] (one 4.7 mg implant), the “flare in sexual behavior” value is given as “No flare in sexual behavior”. Also, the safety concerns entry in the data set on male cats [1] (one 4.7 mg implant, up to M12) is recorded as “no safety concerns”. Besides, in the data set on male cats [1] (setting [4]), the Sexual behavior scores entry is given as “decreased significantly”, the testicular volumes entry is given as “decreased significantly”, the urine odour result is given as “decreased significantly” and the “visibility of penile spines” value is on record as “decreased significantly”. Besides, in data set [2] (individually or together at least by two, summary of Example 3 data), the “levels of cadaverine, indole, paracresol, isovalthine and isobuteine” value is “down regulate”. In addition, in data set [2] (male cat urine, as a function of time, chemically treated group vs control group), the “p-coumaroylputrescine concentration in urine” value is given as “decrease”. Further, in the data set on male cats [3], the “duration of effective chemical castration” value was “at least 12 months”, the “reversibility of effect at the end of the treatment” value is recorded as “reversible” and the sexual behaviors result is listed as “reduced”. Also, the “onset of efficacy in behavioral reduction” value in the data set on male cats [3] (approx.) was 7 to 31 days. Moreover, the safety concerns result in the data set on male cats [3] (single or repeated administration, up to 24 months) is reported as “no safety concern”. The adverse events result in the data set on cat is given as “neither serious adverse events nor live threatening events”. Also, the presence of deslorelin in the data set with dogs (dog, in vivo) is 2.5 months. In the data set with dogs (dogs), the “duration of observed effect” value is given as “at least 6 months”.
